Data taken from patent US11439707B2, “Hypocrellin derivative substituted both in a peri-position and in 2-position by amino, preparation method, and application thereof” (priority 2017, dated 2022).
Entries after “also recorded” stand apart in the source; their conditions may differ.

Key:
[1] = singlet oxygen efficiency test, reference rose bengal; assay type: physicochemical; details: for singlet oxygen efficiencies: comparison with reference rose bengal RB, FIG. 7
[2] = reactive oxygen measurement with singlet oxygen and superoxide radical scavengers; assay type: physicochemical; details: FIG. 6(a), 6(b)
Excerpt: FIGS. 7(a)-7(d) show efficiency curves of measuring singlet oxygen of HB-1c and HC-1c. From the comparison with a reference rose bengal RB, it can be seen that the singlet oxygen efficiencies of HB-1c and HC-1c are respectively 0.40 and 0.38.

[3] = absorption spectrum (maximum absorption wavelength, molar extinction coefficient); assay type: physicochemical
[4] = photostability under 635 nm laser irradiation; assay type: physicochemical; details: 30 min, 20 mW/cm^2, FIG. 9
Procedure: FIG. 9 is a comparison diagram of photostabilities of the hypocrellin derivative prepared in the present invention and a commercial photosensitizer. […] However, in the same condition, after being irradiated with a 635 nm laser for 30 min at a light intensity of 20 mW/cm^2, maximum absorption performance of the commercial porphin photosensitizer Ce6 is decreased by 30% (curve c); and an absorption spectrum of the commercial hematoporphyrin photosensitizer HpD is decreased more, reaching about 50% (curve d). Therefore, in the same condition, the hypocrellin derivative prepared in the present invention has a better photostability than the commercial photosensitizers.

[5] = pH stability of absorption spectrum; assay type: physicochemical; details: pH range of 6.2-8.0, FIG. 8
Excerpt: Therefore, the hypocrellin derivative prepared in the present invention has a better pH stability than the commercial hematoporphyrin HpD in the pH range of 6.2-8.0.

Hela cells [6] = experiment: photo-cytotoxicity experiment (MTT, 635 nm laser); assay type: cell-based
Procedure: Photo-cytotoxicity experiment on cell: cultured Hela cells were digested and pipetted with 0.25% trypsin and to prepare a single-cell suspension, the number of cells was adjusted to about 2×10^4 per milliliter, and 200 uL of the suspension was seeded in a well of a 96-well culture plate, which is placed in a 37° C. incubator containing 5% CO2 for cultivation. After the cells adhere to the wall, a supernatant culture solution was discarded, and photosensitizers of different concentrations, that is, the hematoporphyrin derivative HpD, the hypocrellin B HB, or HB-1c-PEG6 synthesized in example 3, were added in a strictly lucifugous condition in accordance with experimental designs, and the culture plate was placed in the 37° C. incubator containing 5% CO2 for further cultivation and incubation for 1 hour. Then, a semiconductor laser with a wavelength of 635 nm was used for irradiation, a power density was adjusted to 20 mW/cm^2, light beams were evenly and vertically applied onto the 96-well culture plate, and an irradiation time was 1000 S. In addition, each 96-well culture plate is provided with a blank group, and 6 holes were provided for in each condition. After irradiation, the culture plate was placed in the 37° C. incubator containing 5% CO2 for further cultivation and incubation for 24 hours, and then a cellular survival rate was measured. The cellular survival rate was measured by means of the MTT method. 20 uL of MTT was added to each well, wherein the MTT is MTT prepared with PBS and having a concentration of 5 mg/ml. The culture plate was placed in the 37° C. incubator containing 5% CO2 for further cultivation for 4 hours, after which the cultivation was terminated. A supernatant in the well was extracted and discarded carefully. Then, 150 uL of dimethyl sulfoxide (DMSO) was added to each well, and the culture plate was shaken by using a micro shaker for 10 minutes to fully dissolve a purple crystal substance. A wavelength of 570 nm was selected to measure an optical density value (i.e., OD value) of each well on a microplate reader, and the cellular survival rate was calculated in accordance with the following formula: cellular survival rate=OD value of an experimental group/OD value of a blank group×100%.

Hela cells [7] = experiment: dark cytotoxicity experiment (MTT); details: for cytotoxicity when not exposed to light: dark
Procedure: Dark cytotoxicity experiment: cultured Hela cells were digested with 0.25% trypsin and pipetted to prepare a single-cell suspension, the number of cells was adjusted to about 2×10^4 per milliliter, and 200 uL of the suspension was seeded in a well of a 96-well culture plate, which is placed in a 37° C. incubator containing 5% CO2 for cultivation. […] A cellular survival rate was measured by means of the MTT method. 20 uL of MTT was added to each well, wherein the MTT is MTT prepared with PBS and having a concentration of 5 mg/ml. The culture plate was placed in the 37° C. incubator containing 5% CO2 for further cultivation for 4 hours, after which the cultivation was terminated. A supernatant in the well was extracted and discarded carefully. Then, 150 uL of dimethyl sulfoxide was added to each well, and the culture plate was shaken by using a micro shaker for 10 minutes to fully dissolve a purple crystal substance. A wavelength of 570 nm was selected to measure an optical density value (i.e., OD value) of each well on a microplate reader, and the cellular survival rate was calculated in accordance with the following formula: cellular survival rate=OD value of an experimental group/OD value of a blank group×100%.

singlet oxygen in a cell = experiment: detection of singlet oxygen in a cell with fluorescence probe DCFH-DA; assay type: cell-based; details: co-incubation with DCFH-DA, irradiation time to 60 s, FIG. 11
Excerpt: DCFH-DA is used to detect singlet oxygen in a cell.

[8] = water solubility in normal saline; assay type: physicochemical; details: per milliliter of normal saline
Procedure: Most of photosensitizer molecules disclosed in this patent contain a large number of hydrophilic groups, such as a polyethylene glycol chain, a quaternary ammonium salt, a carboxyl group, and a sulfonic acid group, etc., making the photosensitizer molecules have very high water solubility in a physiological condition; and experiments indicate that each milliliter of normal saline or glucose injection can dissolve more than 5 mg of such the photosensitizer molecules, presenting excellent water solubility. Therefore, the photosensitive drug can be well transported in blood vessels during intravenous injection, without causing a vascular blockage. HB-1c-C2-N+ prepared in example 4 contains two quaternary ammonium salts, and each milliliter of normal saline can dissolve more than 20 mg of photosensitizer molecules; HC-1c-PEG6 prepared in example 6 contains two 6-PEG chains, and each milliliter of normal saline can dissolve more than 20 mg of photosensitizer molecules; HB-8c prepared in example 19 contains two carboxyl groups, and each milliliter of normal saline can dissolve more than 10 mg of photosensitizer molecules; HB-13c prepared in example 35 contains two carboxyl groups, and each milliliter of normal saline can dissolve more than 10 mg of photosensitizer molecules; and HB-13c-PEG8 prepared in example 37 contains two 8-PEG chains, and each milliliter of normal saline can dissolve more than 20 mg of photosensitizer molecules. These photosensitizer molecules all present excellent water solubility.

For `COc1c2c3c4c(c(NCCOCCO)c(=O)c5c(NCCOCCO)cc(OC)c(c6c(OC)cc(O)c(c1=O)c63)c54)C=C(C)C2C(C)=O` (centres unmarked) [HB-1c], the singlet oxygen efficiencies [1] was 0.40 and the “photosensitive reactive species produced” value [2] was “primarily producing singlet oxygen”.
In the case of `C=Cc1c(C)c2cc3nc(c(CC(=O)O)c4[nH]c(cc5nc(cc1[nH]2)C(C)=C5CC)c(C)c4C(=O)O)[C@@H](CCC(=O)O)[C@@H]3C` [Ce6, reference compound], the maximum absorption wavelength [3] is reported as 650 nm, the molar extinction coefficient [3] is reported as “less than 20000 M^−1cm^−1” and the “decrease of absorption intensity at the maximum wavelength” value (shortened to “decrease of absorption intensity”) [4] is reported as 30%.
For `COCCOCCOCCOCCOCCOCCOCCC(=O)OCCNc1c2c3c4c(c(OC)c(=O)c5c(NCCOC(=O)CCOCCOCCOCCOCCOCCOCCOC)cc(OC)c(c6c(OC)cc(O)c(c1=O)c63)c54)CC(C)=C2` [HC-2d-PEG6], the maximum absorption wavelength [3] was 624 nm, the molar extinction coefficient [3] was 31,500 M^−1cm^−1 and the singlet oxygen yield [1] was 32%. For the same molecule, the “decrease of absorption intensity” value [4] was “less than 10%”.
For `COc1c2c3c4c(c(NCCO)c(=O)c5c(NCCO)cc(OC)c(c6c(OC)cc(O)c(c1=O)c63)c54)C=C(C)C2` [HC-2c], the maximum absorption wavelength [3] was 636 nm, the molar extinction coefficient [3] was 31,000 M^−1cm^−1 and the singlet oxygen yield [1] was 40%. The “decrease of absorption intensity” value [4] was “less than 10%”.
With `COCCOCCOCCOCCOCCOCCOCCC(=O)OCCOCCNc1c2c3c4c(c(OC)c(=O)c5c(O)cc(OC)c(c6c(OC)cc(NCCOCCOC(=O)CCOCCOCCOCCOCCOCCOCCOC)c(c1=O)c63)c54)CC(C)=C2` [HC-1c-PEG6] the “pH stability, change in absorption spectrum” value [5] was “good pH stability; also recorded: no obvious change”, the Hela cells killed (Hela cells [6]; 140 nM, 635 nm light, FIG. 13(b)) was “more than 90%” and the maximum absorption wavelength [3] was 628 nm. For the same molecule, the molar extinction coefficient [3] was 33,500 M^−1cm^−1, the “cytotoxicity when not exposed to light” value (Hela cells [7]) was “almost no cytotoxicity” and the singlet oxygen yield [1] was 34%. For the same molecule, the “singlet oxygen in the cell (DCFH-DA green fluorescence)” value (singlet oxygen in a cell) was “green fluorescence intensity is gradually increased” and the “amount dissolved by each milliliter of normal saline” value [8] was “more than 20 mg”.
In the case of `COc1c2c3c4c(c(NCCOCCO)c(=O)c5c(NCCOCCO)cc(OC)c(c6c(OC)cc(O)c(c1=O)c63)c54)C=C(C)C2` [HC-1c], the “pH stability, change in absorption spectrum” value [5] is reported as “no obvious change”, the molar extinction coefficient [3] is reported as 30,000 M^−1cm^−1 and the singlet oxygen yield [1] is reported as 38%. It also gave a singlet oxygen efficiencies [1] of 0.38.
For `COCCOCCOCCOCCOCCOCCOC(=O)CCCNc1c2c3c4c(c(OC)c(=O)c5c(O)cc(OC)c(c6c(OC)cc(NCCCC(=O)OCCOCCOCCOCCOCCOCCOC)c(c1=O)c63)c54)CC(C)=C2` [HC-8c-PEG6], the Hela cells killed (Hela cells [6]; 240 nM, 635 nm light, FIG. 15(b)) was “more than 90%”, the maximum absorption wavelength [3] was 632 nm and the molar extinction coefficient [3] was 31,500 M^−1cm^−1. For the same molecule, the “cytotoxicity when not exposed to light” value (Hela cells [7]) was “almost no cytotoxicity” and the singlet oxygen yield [1] was 36%.
In the case of `COCCOCCOCCOCCOCCOCCOCCC(=O)OCCOCCNc1c2c3c4c(c(OC)c(=O)c5c(O)cc(OC)c(c6c(OC)cc(NCCOCCOC(=O)CCOCCOCCOCCOCCOCCOCCOC)c(c1=O)c63)c54)C(C(C)=O)C(C)=C2` (centres unmarked) [HB-1c-PEG6], the Hela cells killed (Hela cells [6]; 160 nM, 635 nm laser, FIG. 12(b)) is reported as “more than 90%”, the maximum absorption wavelength [3] is reported as 628 nm and the molar extinction coefficient [3] is reported as 34,500 M^−1cm^−1. For the same molecule, the “cytotoxicity (dark toxicity)” value (Hela cells [7]; 10 μM, incubated half hour, FIG. 12(a)) was “basically non-cytotoxic” and the singlet oxygen yield [1] was 34%.
